Data from PMC8179049 (Chemical Science, 2020).
“And” between values parts separate entries of the source, which are not always exact repeats. Equal entries are not always repeated. Where two headings read alike, the source gives them in different places.

Assays:
[1] = molecular target: T1, human AspH (His6-AspH315-758) (Homo sapiens, UniProt Q12797); assay: SPE-MS AspH inhibition assay; assay type: biochemical; settings: mean ± SD, n = 3
T1 construct: N-Terminally His6-tagged human AspH315-758 (His6-AspH315-758) was produced in Escherichia coli BL21 (DE3); made in house; host or cells: Escherichia coli BL21 (DE3), pET-28a(+) vector
T1 sequence (Q12797 315-758): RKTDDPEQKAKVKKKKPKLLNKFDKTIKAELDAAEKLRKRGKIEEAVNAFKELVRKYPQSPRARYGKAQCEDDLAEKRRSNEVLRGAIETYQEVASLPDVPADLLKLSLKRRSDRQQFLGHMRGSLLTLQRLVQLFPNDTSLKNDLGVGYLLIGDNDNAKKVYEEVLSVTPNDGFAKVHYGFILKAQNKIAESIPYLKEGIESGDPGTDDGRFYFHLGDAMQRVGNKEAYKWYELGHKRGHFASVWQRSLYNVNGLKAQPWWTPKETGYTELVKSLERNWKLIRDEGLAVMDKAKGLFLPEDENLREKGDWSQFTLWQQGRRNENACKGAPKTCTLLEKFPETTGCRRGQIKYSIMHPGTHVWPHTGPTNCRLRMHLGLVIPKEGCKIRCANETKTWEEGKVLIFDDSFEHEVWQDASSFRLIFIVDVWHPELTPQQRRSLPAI
Method: 6. Recombinant AspH production and purification
N-Terminally His6-tagged human AspH315-758 (His6-AspH315-758) was produced in Escherichia coli BL21 (DE3) cells using a pET-28a(+) vector and purified by Ni(II)-affinity chromatography (HisTrap HP column, GE Healthcare; 1 mL/min flow rate) and size-exclusion chromatography (HiLoad 26/60 Superdex 75 pg 300 mL column; 1 mL/min) using an ÄKTA pure machine (GE Healthcare) as previously reported.1,4 AspH was >95% pure by SDS-PAGE and MS analysis and had the anticipated mass (calculated for His6-AspH315-758: 54519 Da, found: 54519 Da).1 Purified AspH was stored in 50 mM HEPES buffer (pH 7.5, 150 mM NaCl) at a concentration of 125 μM at -78 °C; fresh aliquots were used for all AspH assays.
7. AspH substrate synthesis
AspH substrates were designed based on the sequence of EGFD1 of human coagulation factor X (hFX amino acids 86-124), which is a reported cellular AspH substrate.2 All substrates were prepared with a C-terminal amide.
The hFX-EGFD186-124-4Ser peptide (hFX amino acids 86-124; Supporting Figure S1c),1 used for crystallography experiments, was synthesized by solid phase peptide synthesis (SPPS) and purified by GL Biochem (Shanghai) Ltd (Shanghai, China). The thioether linked cyclic peptide hFX-CP101-119 (hFX amino acids 101-119; Supporting
Figure S1d), which was used as substrate in AspH SPE-MS assays,4 was synthesized by an intramolecular thioetherification cyclization reaction from the corresponding linear peptide (D-Ala replacing Cys101hFX and Ser replacing Cys112hFX) which was obtained by microwave-assisted solid phase peptide synthesis using the Fmoc-protection strategy as described.4
8. AspH inhibition assays […]
water; ammonium iron(II) sulfate hexahydrate, FAS, (NH 4)2Fe(SO4)2·6H2O: 400 mM in 20 mM HCl diluted to 1 mM in Milli-Q® Ultrapure water) were freshly prepared each day from commercially sourced solids (Sigma […]
(Greiner) in an approximately three-fold and 11-point dilution series (100 μM top concentration) using an ECHO 550 acoustic dispenser (Labcyte). DMSO and 2,4 -PDCA were used as negative and positive controls , respectively .
The final DMSO concentration was kept constant at 0.5%v/v throughout all experiments (using the DMSO backfill option of the acoustic dispenser). Each reaction was performed in technical duplicates in adjacent wells of the assay plates; additionally, assays were performed in three independent technical duplicates on different days using different DMSO inhibitor solutions. […]
dispensed across the inhibitor-containing 384-well assay plates with a multidrop dispenser (ThermoFischer Scientific) at 20°C under an ambient atmosphere. The plates were subsequently centrifuged (1000 rpm, 30 s) and incubated for 15 minutes at 20°C. The Substrate Mixture (25 μL/well), containing 2.0 μM hFX-CP101-119, 200 μM […]
Note: The multidrop dispenser ensured proper mixing of the Enzyme and the Substrate Mixtures which was essential for assay reproducibility. The plates were centrifuged (1000 rpm, 30 s) and af ter incubating for 7 minutes, […]
centrifuged (1000 rpm, 60 s) and analysed by MS.
The mass spectrometer parameters were:
Data were exported into Microsoft
The standard deviation (SD) of three
Z’-factors were calculated
9. Determination of kinetic parameters […]
in 50 mM HEPES buffer (pH 7.5).

human AspH = molecular target: T2, human AspH (Homo sapiens, UniProt Q12797); assay: SPE-MS AspH turnover assay in the absence of 2OG (2OG derivative as cosubstrate); settings: 330 μM 2OG or 2OG derivative, 0.1 μM AspH, 2 μM hFX-CP101-119, 50 μM FAS, t = 15 min;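 further: percent conversion = hydroxylated cyclic peptide peak area relative to summed substrate plus product areas, taken from +2 charge state ion chromatograms by solid phase extraction MS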
T2 sequence (Q12797 315-758): T1 sequence (Q12797 315-758)
Method: AspH assays were performed as described in the ESI, ^† data are shown as the mean of three independent runs (n = 3; mean ± standard deviation, SD).
AspH assays were performed as described in Section 9 of the Supporting Information using 0.1 μM AspH, 2 μM
a positive control in the SPE-MS AspH turnover assays (Entry 1).
dependent conversion of the AspH substrate hFX-CP101-119 (Supporting Figure S1d). %-Substrate conversion is
AspH assays were performed as
described in Section 9 of the Supporting Information using 0.1 μM AspH, 2 μM hFX-CP101-119, 50 μM FAS, 330
AspH inhibition assays were incubated for 6 rather than 7 minutes before the enzyme reaction was
stopped by the addition of 10%v/v aqueous formic acid.
MS-analyses were performed using a RapidFire RF 365 high-throughput sampling robot (Agilent) attached to an
iFunnel Agilent 6550 accurate mass quadrupole time-of-flight (Q-TOF) mass spectrometer operated in the positive
ionization mode. Assay samples were aspirated under vacuum for 0.4 s and loaded onto a C4 solid phase extraction (SPE) cartridge. After loading, the C4 SPE cartridge was washed with 0.1%v/v aqueous formic acid to remove
non-volatile buffer salts (5 s, 1.5 mL/min). The peptide was eluted from the SPE cartridge with 0.1%v/v aqueous
formic acid in 85/15v/v acetonitrile/water into the mass spectrometer (5 s, 1.25 mL/min) and the SPE cartridge re-
equilibrated with 0.1%v/v aqueous formic acid (1 s, 1.25 mL/min). The mass spectrometer parameters were:
capillary voltage (4000 V), nozzle voltage (1000 V), fragmentor voltage (365 V), gas temperature (280°C), gas
flow (13 L/min), sheath gas temperature (350°C), sheath gas flow (12 L/min). The m/z +2 charge states of the
cyclic peptide (substrate) and the hydroxylated cyclic peptide (product) were used to extract ion chromatogram
data, peak areas were integrated using RapidFire Integrator software (Agilent). Data were exported into Microsoft
Excel and used to calculate the % conversion of the hydroxylation reaction using the equation: % conversion =
100 x (integral product cyclic peptide) / (integral substrate cyclic peptide + integral product cyclic peptide).
Normalized dose-response curves (2,4-PDCA and DMSO controls) were obtained from the raw data by non-linear
regression (GraphPad Prism 5) and used to determine IC50-values. The standard deviation (SD) of three
independent IC50 determinations (n = 3) was calculated using GraphPad Prism 5. Z’-factors were calculated
according to the cited literature using Microsoft Excel (Supporting Figure S3).14

[2] = 50 nM His6-AspH315-758, 1.0 μM hFX-CP101-119, read-out: IC50 (ESI Fig. S4)
[3] = 50 nM His6-AspH315–758, 1.0 μM hFX-CP101–119, 3 μM 2OG, read-out: IC50 (inhibition of AspH)
[4] = IC50 at 200 μM 2OG (ESI Table S1), assay concentration of 200 μM 2OG
[5] = IC50 at 400 μM 2OG (ESI Table S1), assay concentration of 400 μM 2OG
[6] = IC50 at 600 μM 2OG (ESI Table S1), assay concentration of 600 μM (0.6 mM) 2OG
[7] = 50 nM His6-AspH315–758, 1.0 μM hFX-CP101–119, 3 μM 2OG

Compound	IC50 [1, 3]	AspH-catalyzed substrate conversion (hydroxylation of hFX-CP101-119) (human AspH) [%]	IC50 (inhibition of AspH) [1, 7]	also measured
CC(C)(NC(=O)C(=O)O)C(=O)O [compound 49, N-oxalyl-α-methylalanine]	~2.9 µM	–	–	IC50 [1, 2]: 2.9 ± 1.3 µM
CCCC(CC(=O)C(=O)O)C(=O)O (centres unmarked) [compound 28]	0.47 ± 0.08 µM	< 1	–	–
O=C(O)C(=O)CC(Cc1ccc2ccccc2c1)C(=O)O (centres unmarked) [compound 33]	0.17 ± 0.03 µM	< 1	–	melting point: > 220 °C (dec.); IC50 [1, 4]: 2.5 ± 0.4 µM; IC50 [1, 5]: 3.1 ± 0.3 µM; IC50 [1, 6]: 5.6 µM and ~5.6 µM
O=C(O)C(=O)[C@@H]1[C@@H](C(=O)O)[C@@H]2C=C[C@H]1C2 (racemic) [compound 36]	~19.3 µM and 19.3 µM	< 1	–	–
O=C(O)C(=O)c1ccc(C(=O)O)c(F)c1 [compound 43]	–	~8	Inactive	melting point: > 260 °C (dec.)
CC1(C)C(C(=O)O)C1C(=O)C(=O)O (centres unmarked) [compound 35]	~5.2 µM and 5.2 µM	< 1	–	–
O=C(O)C(=O)c1cccc(C(=O)O)c1 [compound 40, 3-carboxyphenylglyoxylic acid]	–	< 1	did not inhibit	IC50 (inhibition of AspH) ([1]; 50 nM His6-AspH315–758, 1.0 μM hFX-CP101–119, 3 μM 2OG, listed as C00009): Inactive
COc1ccc(CC(CC(=O)O)C(=O)C(=O)O)cc1 (centres unmarked) [compound 24]	3.6 ± 1.4 µM	< 1	–	melting point: > 260 °C (dec.)
O=C(O)C(=O)c1ccc(C(=O)O)s1 [compound 38]	~12.9 µM and 12.9 µM	~15	–	melting point: > 285 °C (dec.)
O=C(O)C(=O)c1ccccc1C(=O)O [compound 39]	–	< 1	did not inhibit	IC50 (inhibition of AspH) ([1]; 50 nM His6-AspH315–758, 1.0 μM hFX-CP101–119, 3 μM 2OG, listed as C00006): Inactive
Cc1cc(C(=O)O)ccc1C(=O)C(=O)O [compound 46]	–	~5	Inactive	melting point: > 320 °C (dec.)
O=C(O)C(=O)C12CCC(C(=O)O)(CC1)CC2 [compound 47]	–	~8	did not inhibit	melting point: > 300 °C (dec.); IC50 (inhibition of AspH) ([1]; 50 nM His6-AspH315–758, 1.0 μM hFX-CP101–119, 3 μM 2OG, listed as C00030): Inactive
O=C(O)CC(Cc1ccc(OC(F)(F)F)cc1)C(=O)C(=O)O (centres unmarked) [compound 23]	6.3 ± 2.6 µM	< 1	–	melting point: > 260 °C (dec.)
CC(C)(C)CCC(CC(=O)C(=O)O)C(=O)O (centres unmarked) [compound 30]	0.7 ± 0.11 µM	< 1	–	–
CCC(CC(=O)O)C(=O)C(=O)O (centres unmarked) [compound 17, 3-ethyl-2OG]	~1.2 µM and 1.2 µM	< 1	–	IC50 [1, 4]: 22.4 ± 3.2 µM; IC50 [1, 5]: 35.3 ± 9.9 µM; IC50 [1, 6]: 54.9 ± 10.8 µM
CC(CC(=O)C(=O)O)C(=O)O (centres unmarked) [compound 26, 4-methyl-2OG]	–	~10	did not inhibit	IC50 (inhibition of AspH) ([1]; 50 nM His6-AspH315–758, 1.0 μM hFX-CP101–119, 3 μM 2OG, listed as C00031): Inactive
Cc1cc(C)cc(CC(CC(=O)O)C(=O)C(=O)O)c1 (centres unmarked) [compound 25]	4.7 ± 0.2 µM	< 1	–	–
CC(C)(C)CCC(CC(=O)O)C(=O)C(=O)O (centres unmarked) [compound 19]	~48.2 µM and 48.2 µM	< 1	–	–
CCC(CC(=O)C(=O)O)C(=O)O (centres unmarked) [compound 27]	0.61 ± 0.09 µM	< 1	–	–
CCCC(CC(=O)O)C(=O)C(=O)O (centres unmarked) [compound 18]	~5.7 µM and 5.7 µM	< 1	–	–
CC(C)CC(CC(=O)C(=O)O)C(=O)O (centres unmarked) [compound 29]	0.51 ± 0.12 µM	< 1	–	IC50 [1, 4]: 10.8 ± 2.7 µM; IC50 [1, 5]: 16.8 ± 2.5 µM; IC50 [1, 6]: 26.9 ± 7 µM
O=C(O)CNC(=O)C(=O)O [NOG, N-oxalylglycine, reference compound]	~1 µM	–	–	IC50 [1, 2]: 0.99 ± 0.31 µM
O=C(O)C(=O)c1cscc1C(=O)O [compound 37]	–	< 1	did not inhibit	IC50 (inhibition of AspH) ([1]; 50 nM His6-AspH315–758, 1.0 μM hFX-CP101–119, 3 μM 2OG, listed as C00032): Inactive
O=C(O)C(=O)c1ccc(C(=O)O)c(Br)c1 [compound 45]	–	~8	Inactive	–
O=C(O)C(=O)C1(C(=O)O)CC1 [compound 48]	~3.3 µM and 3.3 µM	< 1	–	–
